Experimental data taken from PubChem BioAssay AID256 (DTP/NCI, 2004).
Values joined by “and” are separate entries in the source; they are usually repeats but may differ in a detail not shown here. Equal entries are not always repeated. Toxic doses and inconclusive results are not listed.

Tested on: CD2F1 mice, L1210 leukemia ip, survival T/C
Assay: NCI In Vivo Anticancer Drug Screen. Data for tumor model L1210 Leukemia (intraperitoneal) in CD2F1 (CDF1) mice
Conditions: higher = longer survival
How it was run: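 Transplantable tumor in mice; compound-treated vs vehicle-treated groups. Read-out = treated/control ratio of the measured endpoint.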

For `NC(=O)c1csc(C2OC(CO)C(O)C2O)n1` (stereo not drawn), the T/C (endpoint: mean survival time, dose: 12.5 mg/kg/injection, schedule: Q01DX005 (ip), vehicle: water) was 111 % of control, the T/C (endpoint: mean survival time, dose: 25.0 mg/kg/injection, schedule: Q01DX005 (ip), vehicle: water) was 120 % of control and the T/C (endpoint: mean survival time, dose: 25.0 mg/kg/injection, schedule: Q01DX009 (ip), vehicle: water) was 158 % of control and 162 % of control. The T/C (endpoint: mean survival time, dose: 50.0 mg/kg/injection, schedule: Q01DX005 (ip), vehicle: water) was 152 % of control, the T/C (endpoint: mean survival time, dose: 50.0 mg/kg/injection, schedule: Q01DX009 (ip), vehicle: water) was 166 % of control and 167 % of control and the T/C (endpoint: mean survival time, dose: 100.0 mg/kg/injection, schedule: Q01DX009 (ip), vehicle: saline) was 183 % of control. For the same compound, the T/C (endpoint: mean survival time, dose: 100.0 mg/kg/injection, schedule: Q01DX009 (ip), vehicle: water) was 182 % of control, the T/C (endpoint: mean survival time, dose: 150.0 mg/kg/injection, schedule: Q01DX005 (ip), vehicle: water) was 150 % of control and the T/C (endpoint: mean survival time, dose: 200.0 mg/kg/injection, schedule: Q01DX009 (ip), vehicle: saline) was 182 % of control. For the same compound, the T/C (endpoint: mean survival time, dose: 200.0 mg/kg/injection, schedule: Q01DX009 (ip), vehicle: water) was 203 % of control and 219 % of control, the T/C (endpoint: mean survival time, dose: 300.0 mg/kg/injection, schedule: Q01DX005 (ip), vehicle: water) was 155 % of control and the T/C (endpoint: mean survival time, dose: 400.0 mg/kg/injection, schedule: Q01DX005 (ip), vehicle: water) was 191 % of control and 192 % of control and 216 % of control. The T/C (endpoint: mean survival time, dose: 400.0 mg/kg/injection, schedule: Q01DX009 (ip), vehicle: saline) was 224 % of control, the T/C (endpoint: mean survival time, dose: 400.0 mg/kg/injection, schedule: Q01DX009 (ip), vehicle: water) was 200 % of control and 229 % of control and the T/C (endpoint: mean survival time, dose: 600.0 mg/kg/injection, schedule: Q01DX009 (ip), vehicle: saline) was 230 % of control. The T/C (endpoint: mean survival time, dose: 800.0 mg/kg/injection, schedule: Q01DX005 (ip), vehicle: water) was 206 % of control and 247 % of control, the T/C (endpoint: mean survival time, dose: 800.0 mg/kg/injection, schedule: Q01DX009 (ip), vehicle: saline) was 171 % of control and the T/C (endpoint: mean survival time, dose: 800.0 mg/kg/injection, schedule: Q01DX009 (ip), vehicle: water) was 185 % of control. The T/C (endpoint: median survival time, dose: 4.0 mg/kg/injection, schedule: Q03HX024 (ip), vehicle: water) was 150 % of control, the T/C (endpoint: median survival time, dose: 8.0 mg/kg/injection, schedule: Q03HX024 (ip), vehicle: water) was 186 % of control and the T/C (endpoint: median survival time, dose: 16.0 mg/kg/injection, schedule: Q03HX024 (ip), vehicle: water) was 168 % of control. The T/C (endpoint: median survival time, dose: 16.0 mg/kg/injection, schedule: Q04DX003 (ip), vehicle: water) was 101 % of control, the T/C (endpoint: median survival time, dose: 16.0 mg/kg/injection, schedule: Q#A X018 (ip), vehicle: water) was 174 % of control and the T/C (endpoint: median survival time, dose: 22.25 mg/kg/injection, schedule: Q01DX005 (ip), vehicle: water) was 97 % of control. For the same compound, the T/C (endpoint: median survival time, dose: 23.44 mg/kg/injection, schedule: Q01DX005 (ip), vehicle: water) was 98 % of control, the T/C (endpoint: median survival time, dose: 32.0 mg/kg/injection, schedule: Q01DX001 (iv), vehicle: water) was 117 % of control and the T/C (endpoint: median survival time, dose: 32.0 mg/kg/injection, schedule: Q01DX005 (ip), vehicle: water) was 152 % of control. For the same compound, the T/C (endpoint: median survival time, dose: 32.0 mg/kg/injection, schedule: Q01DX009 (ip), vehicle: water) was 159 % of control and 176 % of control, the T/C (endpoint: median survival time, dose: 32.0 mg/kg/injection, schedule: Q01DX009 (oral), vehicle: water) was 163 % of control and the T/C (endpoint: median survival time, dose: 32.0 mg/kg/injection, schedule: Q03HX024 (ip), vehicle: water) was 184 % of control. For the same compound, the T/C (endpoint: median survival time, dose: 32.0 mg/kg/injection, schedule: Q04DX003 (ip), vehicle: water) was 109 % of control, the T/C (endpoint: median survival time, dose: 32.0 mg/kg/injection, schedule: Q#A X018 (ip), vehicle: water) was 195 % of control and the T/C (endpoint: median survival time, dose: 44.5 mg/kg/injection, schedule: Q01DX005 (ip), vehicle: water) was 102 % of control. The T/C (endpoint: median survival time, dose: 64.0 mg/kg/injection, schedule: Q01DX001 (ip), vehicle: water) was 110 % of control, the T/C (endpoint: median survival time, dose: 64.0 mg/kg/injection, schedule: Q01DX001 (iv), vehicle: water) was 120 % of control and the T/C (endpoint: median survival time, dose: 64.0 mg/kg/injection, schedule: Q01DX001 (oral), vehicle: water) was 111 % of control. For the same compound, the T/C (endpoint: median survival time, dose: 64.0 mg/kg/injection, schedule: Q01DX005 (ip), vehicle: water) was 163 % of control, the T/C (endpoint: median survival time, dose: 64.0 mg/kg/injection, schedule: Q01DX005 (iv), vehicle: water) was 151 % of control and the T/C (endpoint: median survival time, dose: 64.0 mg/kg/injection, schedule: Q01DX005 (oral), vehicle: water) was 150 % of control. For the same compound, the T/C (endpoint: median survival time, dose: 64.0 mg/kg/injection, schedule: Q01DX009 (oral), vehicle: water) was 188 % of control, the T/C (endpoint: median survival time, dose: 64.0 mg/kg/injection, schedule: Q03HX024 (ip), vehicle: water) was 219 % of control and the T/C (endpoint: median survival time, dose: 64.0 mg/kg/injection, schedule: Q04DX003 (ip), vehicle: water) was 114 % of control. For the same compound, the T/C (endpoint: median survival time, dose: 64.0 mg/kg/injection, schedule: Q#A X018 (ip), vehicle: water) was 210 % of control, the T/C (endpoint: median survival time, dose: 89.0 mg/kg/injection, schedule: Q01DX005 (ip), vehicle: water) was 94 % of control and the T/C (endpoint: median survival time, dose: 93.75 mg/kg/injection, schedule: Q01DX005 (ip), vehicle: water) was 101 % of control. The T/C (endpoint: median survival time, dose: 125.0 mg/kg/injection, schedule: Q01DX005 (ip), vehicle: water) was 168 % of control, the T/C (endpoint: median survival time, dose: 128.0 mg/kg/injection, schedule: Q01DX001 (ip), vehicle: water) was 114 % of control and the T/C (endpoint: median survival time, dose: 128.0 mg/kg/injection, schedule: Q01DX001 (oral), vehicle: water) was 123 % of control. For the same compound, the T/C (endpoint: median survival time, dose: 128.0 mg/kg/injection, schedule: Q01DX005 (ip), vehicle: water) was 164 % of control, the T/C (endpoint: median survival time, dose: 128.0 mg/kg/injection, schedule: Q01DX005 (iv), vehicle: water) was 166 % of control and the T/C (endpoint: median survival time, dose: 128.0 mg/kg/injection, schedule: Q01DX005 (oral), vehicle: water) was 163 % of control. For the same compound, the T/C (endpoint: median survival time, dose: 128.0 mg/kg/injection, schedule: Q01DX009 (oral), vehicle: water) was 217 % of control, the T/C (endpoint: median survival time, dose: 128.0 mg/kg/injection, schedule: Q03HX024 (ip), vehicle: water) was 231 % of control and the T/C (endpoint: median survival time, dose: 128.0 mg/kg/injection, schedule: Q04DX003 (ip), vehicle: water) was 118 % of control. The T/C (endpoint: median survival time, dose: 128.0 mg/kg/injection, schedule: Q#A X018 (ip), vehicle: water) was 240 % of control, the T/C (endpoint: median survival time, dose: 150.0 mg/kg/injection, schedule: Q01DX005 (ip), vehicle: water) was 157 % of control and the T/C (endpoint: median survival time, dose: 178.0 mg/kg/injection, schedule: Q01DX005 (ip), vehicle: water) was 98 % of control. The T/C (endpoint: median survival time, dose: 250.0 mg/kg/injection, schedule: Q01DX005 (ip), vehicle: water) was 158 % of control and 179 % of control, the T/C (endpoint: median survival time, dose: 256.0 mg/kg/injection, schedule: Q01DX001 (ip), vehicle: water) was 117 % of control and the T/C (endpoint: median survival time, dose: 256.0 mg/kg/injection, schedule: Q01DX001 (oral), vehicle: water) was 122 % of control. The T/C (endpoint: median survival time, dose: 256.0 mg/kg/injection, schedule: Q01DX005 (ip), vehicle: water) was 183 % of control, the T/C (endpoint: median survival time, dose: 256.0 mg/kg/injection, schedule: Q01DX005 (iv), vehicle: water) was 190 % of control and the T/C (endpoint: median survival time, dose: 256.0 mg/kg/injection, schedule: Q01DX005 (oral), vehicle: water) was 188 % of control. The T/C (endpoint: median survival time, dose: 256.0 mg/kg/injection, schedule: Q01DX009 (oral), vehicle: water) was 227 % of control, the T/C (endpoint: median survival time, dose: 256.0 mg/kg/injection, schedule: Q03HX024 (ip), vehicle: water) was 246 % of control and the T/C (endpoint: median survival time, dose: 256.0 mg/kg/injection, schedule: Q#A X018 (ip), vehicle: water) was 252 % of control. For the same compound, the T/C (endpoint: median survival time, dose: 300.0 mg/kg/injection, schedule: Q01DX005 (ip), vehicle: water) was 166 % of control, the T/C (endpoint: median survival time, dose: 356.0 mg/kg/injection, schedule: Q01DX005 (ip), vehicle: water) was 101 % of control and the T/C (endpoint: median survival time, dose: 375.0 mg/kg/injection, schedule: Q01DX005 (ip), vehicle: water) was 92 % of control. For the same compound, the T/C (endpoint: median survival time, dose: 500.0 mg/kg/injection, schedule: Q01DX005 (ip), vehicle: water) was 175 % of control and 201 % of control, the T/C (endpoint: median survival time, dose: 512.0 mg/kg/injection, schedule: Q01DX005 (ip), vehicle: water) was 190 % of control and the T/C (endpoint: median survival time, dose: 512.0 mg/kg/injection, schedule: Q01DX005 (iv), vehicle: water) was 217 % of control. For the same compound, the T/C (endpoint: median survival time, dose: 512.0 mg/kg/injection, schedule: Q01DX005 (oral), vehicle: water) was 195 % of control, the T/C (endpoint: median survival time, dose: 512.0 mg/kg/injection, schedule: Q01DX009 (oral), vehicle: water) was 154 % of control and the T/C (endpoint: median survival time, dose: 512.0 mg/kg/injection, schedule: Q03HX024 (ip), vehicle: water) was 284 % of control. For the same compound, the T/C (endpoint: median survival time, dose: 512.0 mg/kg/injection, schedule: Q04DX003 (ip), vehicle: water) was 180 % of control, the T/C (endpoint: median survival time, dose: 512.0 mg/kg/injection, schedule: Q#A X018 (ip), vehicle: water) was 269 % of control and the T/C (endpoint: median survival time, dose: 600.0 mg/kg/injection, schedule: Q01DX005 (ip), vehicle: water) was 188 % of control. The T/C (endpoint: median survival time, dose: 1000.0 mg/kg/injection, schedule: Q01DX005 (ip), vehicle: water) was 188 % of control and 191 % of control, the T/C (endpoint: median survival time, dose: 1024.0 mg/kg/injection, schedule: Q01DX005 (ip), vehicle: water) was 205 % of control and the T/C (endpoint: median survival time, dose: 1024.0 mg/kg/injection, schedule: Q01DX005 (iv), vehicle: water) was 226 % of control. For the same compound, the T/C (endpoint: median survival time, dose: 1024.0 mg/kg/injection, schedule: Q01DX005 (oral), vehicle: water) was 213 % of control, the T/C (endpoint: median survival time, dose: 1024.0 mg/kg/injection, schedule: Q01DX009 (oral), vehicle: water) was 110 % of control and the T/C (endpoint: median survival time, dose: 1024.0 mg/kg/injection, schedule: Q04DX003 (ip), vehicle: water) was 191 % of control. The T/C (endpoint: median survival time, dose: 2048.0 mg/kg/injection, schedule: Q01DX001 (oral), vehicle: water) was 155 % of control, the T/C (endpoint: median survival time, dose: 2048.0 mg/kg/injection, schedule: Q01DX005 (oral), vehicle: water) was 98 % of control and the T/C (endpoint: median survival time, dose: 2048.0 mg/kg/injection, schedule: Q01DX009 (ip), vehicle: water) was 109 % of control. For the same compound, the T/C (endpoint: median survival time, dose: 2048.0 mg/kg/injection, schedule: Q04DX003 (ip), vehicle: water) was 223 % of control.
